In US8314121B2, “Imidazolone derivatives, preparation thereof as drugs, pharmaceutical compositions, and use thereof as protein kinase inhibitors, in particular CDC7” (Sanofi, priority 2006, dated 2012):

Compound | melting point
O=C1NC(N2CCCCCC2)=N/C1=C\c1c[nH]c2ncc(-c3ccccc3)cc12 [Example 42, (5Z)-2-azepan-1-yl-5-[(5-phenyl-1H-pyrrolo[2,3-b]pyridin-3-yl)methylidene]-3,5-dihydro-4H-imidazol-4-one] | 302 °C
O=C1NC(CC2CC2)=N/C1=C\c1c[nH]c2ncc(Cl)cc12 [Example 78, (5Z)-2-(cyclopropylmethyl)-5-(5-chloro-1H-pyrrolo[2,3-b]pyridin-3-ylmethylidene)-3,5-dihydro-4H-imidazol-4-one] | 295 to 296 °C
O=C1NC(N2CCCC2)=N/C1=C\c1c[nH]c2ncc(Cl)cc12 [Example 27, (5Z)-5-[(5-chloro-1H-pyrrolo[2,3-b]pyridin-3-yl)methylidene]-2-pyrrolidin-1-yl-3,5-dihydro-4H-imidazol-4-one] | 350 to 360 °C
CN(Cc1ccccn1)C1=N/C(=C\c2c[nH]c3ncc(Cl)cc23)C(=O)N1 [Example 96, (5Z)-5-[(5-chloro-1H-pyrrolo[2,3-b]pyridin-3-yl)methylidene]-2-[methyl(pyridin-2-ylmethyl)amino]-3,5-dihydro-4H-imidazol-4-one] | 350 °C
Cc1cnc2[nH]cc(/C=C3\N=C(NCC4CC4)NC3=O)c2c1 [Example 43, (5Z)-2-[(cyclopropylmethyl)amino]-5-[(5-methyl-1H-pyrrolo[2,3-b]pyridin-3-yl)methylidene]-3,5-dihydro-4H-imidazol-4-one] | 319 to 320 °C
O=C1/C(=C/c2c[nH]c3ncc(Cl)cc23)N=C(Oc2ccccc2)N1c1ccccc1 [Example 97, (5Z)-5-[(5-chloro-1H-pyrrolo[2,3-b]pyridin-3-yl)methylidene]-2-phenoxy-3-phenyl-3,5-dihydro-4H-imidazol-4-one] | 287 °C
O=C1NC(NCC2CC2)=N/C1=C\c1c[nH]c2ncc(N3CCOCC3)cc12 [Example 51, (5Z)-2-[(cyclopropylmethyl)amino]-5-[(5-morpholin-4-yl-1H-pyrrolo[2,3-b]pyridin-3-yl)methylidene]-3,5-dihydro-4H-imidazol-4-one] | 331 °C
CN1C(=O)/C(=C/c2c[nH]c3ncccc23)N=C1C1CCCCC1 [Example 70, (5Z)-2-cyclohexyl-3-methyl-5-(1H-pyrrolo[2,3-b]pyridin-3-ylmethylidene)-3,5-dihydro-4H-imidazol-4-one] | 261 to 262 °C
CN1CCN(C2=N/C(=C\c3c[nH]c4ncc(-c5ccccc5)cc34)C(=O)N2)CC1 [Example 41, (5Z)-2-(4-methylpiperazin-1-yl)-5-[(5-phenyl-1H-pyrrolo[2,3-b]pyridin-3-yl)methylidene]-3,5-dihydro-4H-imidazol-4-one] | 304 °C
O=C1NC(N2CCCCCC2)=N/C1=C\c1c[nH]c2ncc(Cl)cc12 [Example 25, (5Z)-2-azepan-1-yl-5-[(5-chloro-1H-pyrrolo[2,3-b]pyridin-3-yl)methylidene]-3,5-dihydro-4H-imidazol-4-one] | 310 to 320 °C
CC(C)C1=N/C(=C\c2c[nH]c3ncc(Cl)cc23)C(=O)N1 [Example 80, (5Z)-2-(1-methylethyl)-5-(5-chloro-1H-pyrrolo[2,3-b]pyridin-3-ylmethylidene)-3,5-dihydro-4H-imidazol-4-one] | 277 to 280 °C
CC(C)C1=N/C(=C\c2c[nH]c3ncccc23)C(=O)N1C [Example 81, (5Z)-3-methyl-2-(1-methylethyl)-5-(1H-pyrrolo[2,3-b]pyridin-3-ylmethylidene)-3,5-dihydro-4H-imidazol-4-one] | 222 to 224 °C
CN(C)C1=N/C(=C\c2c[nH]c3ncc(Cl)cc23)C(=O)N1 [Example 32, (5Z)-5-[(5-chloro-1H-pyrrolo[2,3-b]pyridin-3-yl)methylidene]-2-(dimethylamino)-3,5-dihydro-4H-imidazol-4-one] | 350 °C
COC1=N/C(=C\c2c[nH]c3ncc(Cl)cc23)C(=O)N1c1ccccc1 [Example 98, (5Z)-5-[1-(5-chloro-1H-pyrrolo[2,3-b]pyridin-3-yl)-methylidene]-2-methoxy-3-phenyl-3,5-dihydro-4H-imidazol-4-one] | 227.5 °C

Second part, the compound after the results:

melting point | Compound
270 to 272 °C | O=C1NC(CCc2ccccc2)=N/C1=C\c1c[nH]c2ncccc12 [Example 67, (5Z)-2-(2-Phenylethyl)-5-(1H-pyrrolo[2,3-b]pyridin-3-ylmethylidene)-3,5-dihydro-4H-imidazol-4-one]
281 °C | COCCN(C)C1=N/C(=C\c2c[nH]c3ncc(Cl)cc23)C(=O)N1 [Example 95, (5Z)-5-[(5-chloro-1H-pyrrolo[2,3-b]pyridin-3-yl)methylidene]-2-[(2-methoxyethyl)(methyl)amino]-3,5-dihydro-4H-imidazol-4-one]
289 °C | O=C1NC(CC2CC2)=N/C1=C\c1c[nH]c2ncccc12 [Example 77, (5Z)-2-(cyclopropylmethyl)-5-(1H-pyrrolo[2,3-b]pyridin-3-ylmethylidene)-3,5-dihydro-4H-imidazol-4-one]
313 to 315 °C | O=C1NC(SCc2ccccc2)=N/C1=C\c1c[nH]c2ncc(Cl)cc12 [Example 61, (5Z)-2-(benzylsulphanyl)-5-[(5-chloro-1H-pyrrolo[2,3-b]pyridin-3-yl)methylidene]-3,5-dihydro-4H-imidazol-4-one]
274 °C | CC(C)CCC1=N/C(=C\c2c[nH]c3ncccc23)C(=O)N1 [Example 68, (5Z)-2-(3-methylbutyl)-5-(1H-pyrrolo[2,3-b]pyridin-3-ylmethylidene)-3,5-dihydro-4H-imidazol-4-one]
331 to 332 °C | Cc1cnc2[nH]cc(/C=C3\N=C(N4CCN(c5ccccc5)CC4)NC3=O)c2c1 [Example 46, (5Z)-5-[(5-methyl-1H-pyrrolo[2,3-b]pyridin-3-yl)methylidene]-2-(4-phenylpiperazin-1-yl)-3,5-dihydro-4H-imidazol-4-one]
320 to 321 °C | Cc1cnc2[nH]cc(/C=C3\N=C(N4CCCCC4)NC3=O)c2c1 [Example 45, (5Z)-5-[(5-methyl-1H-pyrrolo[2,3-b]pyridin-3-yl)methylidene]-2-piperidin-1-yl-3,5-dihydro-4H-imidazol-4-one]
299 °C | O=C1NC(N2CCCCCC2)=N/C1=C\c1c[nH]c2ncc(F)cc12 [Example 36, (5Z)-2-azepan-1-yl-5-[(5-fluoro-1H-pyrrolo[2,3-b]pyridin-3-yl)methylidene]-3,5-dihydro-4H-imidazol-4-one]
310 °C | CN(Cc1ccccc1)C1=N/C(=C\c2c[nH]c3ncc(Cl)cc23)C(=O)N1 [Example 93, (5Z)-2-[benzyl(methyl)amino]-5-[(5-chloro-1H-pyrrolo[2,3-b]pyridin-3-yl)methylidene]-3,5-dihydro-4H-imidazol-4-one]
292 to 293 °C | CC(C)CC1=N/C(=C\c2c[nH]c3ncccc23)C(=O)N1 [Example 74, (5Z)-2-(2-methylpropyl)-5-(1H-pyrrolo[2,3-b]pyridin-3-ylmethylidene)-3,5-dihydro-4H-imidazol-4-one]
201 °C | CC(C)CC1=N/C(=C\c2c[nH]c3ncccc23)C(=O)N1C [Example 75, (5Z)-3-methyl-2-(2-methylpropyl)-5-(1H-pyrrolo[2,3-b]pyridin-3-ylmethylidene)-3,5-dihydro-4H-imidazol-4-one]
307 °C | O=C1NC(N2CCCCC2)=N/C1=C\c1c[nH]c2ncc(-c3ccccc3)cc12 [Example 40, (5Z)-5-[(5-phenyl-1H-pyrrolo[2,3-b]pyridin-3-yl)methylidene]-2-piperidin-1-yl-3,5-dihydro-4H-imidazol-4-one]
335 °C | N#Cc1cnc2[nH]cc(/C=C3\N=C(NCC4CC4)NC3=O)c2c1 [Example 37, 3-[(Z)-{2-[(cyclopropylmethyl)amino]-5-oxo-1,5-dihydro-4H-imidazol-4-ylidene}methyl]-1H-pyrrolo[2,3-b]pyridine-5-carbonitrile]
309 to 310 °C | CC(C)C1=N/C(=C\c2c[nH]c3ncccc23)C(=O)N1 [Example 79, (5Z)-2-(1-methylethyl)-5-(1H-pyrrolo[2,3-b]pyridin-3-ylmethylidene)-3,5-dihydro-4H-imidazol-4-one]
318 to 321 °C | CCCCC1=N/C(=C\c2c[nH]c3nc(Cl)ccc23)C(=O)N1 [Example 65, (5Z)-2-butyl-5-[(6-chloro-1H-pyrrolo[2,3-b]pyridin-3-yl)methylidene]-3,5-dihydro-4H-imidazol-4-one]
> 410 °C | CSC1=N/C(=C\c2c[nH]c3ncc(Cl)cc23)C(=O)N1 [Example 60, (5Z)-5-[(5-chloro-1H-pyrrolo[2,3-b]pyridin-3-yl)methylidene]-2-(methylsulphanyl)-3,5-dihydro-4H-imidazol-4-one]
350 °C | O=C1NC(NCC2CC2)=N/C1=C\c1c[nH]c2ncc(C(F)(F)F)cc12 [Example 48, (5Z)-2-[(cyclopropylmethyl)amino]-5-{[5-(trifluoromethyl)-1H-pyrrolo[2,3-b]pyridin-3-yl]methylidene}-3,5-dihydro-4H-imidazol-4-one]
288 to 290 °C | CCCCC1=N/C(=C\c2c[nH]c3ncc(Cl)cc23)C(=O)N1 [Example 64, (5Z)-2-butyl-5-[(5-chloro-1H-pyrrolo[2,3-b]pyridin-3-yl)methylidene]-3,5-dihydro-4H-imidazol-4-one]
315 to 320 °C | O=C1NC(N2CCCCC2)=N/C1=C\c1c[nH]c2ncc(Cl)cc12 [Example 30, (5Z)-5-[(5-chloro-1H-pyrrolo[2,3-b]pyridin-3-yl)methylidene]-2-piperidin-1-yl-3,5-dihydro-4H-imidazol-4-one]
206 °C | CCCN1C(=O)/C(=C/c2c[nH]c3ncccc23)N=C1C [Example 87, (5Z)-2-methyl-3-propyl-5-(1H-pyrrolo[2,3-b]pyridin-3-ylmethylidene)-3,5-dihydro-4H-imidazol-4-one]
340 °C | O=C1NC(N2CCCCCC2)=N/C1=C\c1c[nH]c2ncc(C(F)(F)F)cc12 [Example 49, (5Z)-2-azepan-1-yl-5-{[5-(trifluoromethyl)-1H-pyrrolo[2,3-b]pyridin-3-yl]methylidene}-3,5-dihydro-4H-imidazol-4-one]
